Data published in ChEMBL document CHEMBL3758177, “Synthesis and biological evaluation of novel phosphoramidate derivatives of coumarin as chitin synthase inhibitors and antifungal agents” (Eur J Med Chem, 2016).
In brackets after ≈: the same amount, converted by molar mass.

Experiments:
[1] = tested on: Pseudomonas aeruginosa; experiment: Antibacterial activity against Pseudomonas aeruginosa ATCC 9027 after 24 hrs by two-fold serial dilution method; assay type: functional; conditions: ATCC 9027, 24 h
[2] = tested on: Escherichia coli; experiment: Antibacterial activity against Escherichia coli JM 109 after 24 hrs by two-fold serial dilution method; assay type: functional; conditions: JM 109, 24 h
[3] = tested on: Staphylococcus aureus; experiment: Antibacterial activity against Methicillin-resistant Staphylococcus aureus N 315 after 24 hrs by two-fold serial dilution method; assay type: functional; conditions: N 315, 24 h
[4] = tested on: Proteus vulgaris; experiment: Antibacterial activity against Proteus vulgaris ATCC 8427 after 24 hrs by two-fold serial dilution method; assay type: functional; conditions: ATCC 8427, 24 h
[5] = tested on: Bacillus spizizenii; experiment: Antibacterial activity against Bacillus subtilis ATCC 6633 after 24 hrs by two-fold serial dilution method; assay type: functional; conditions: ATCC 6633, 24 h
[6] = tested on: Staphylococcus aureus; experiment: Antibacterial activity against Staphylococcus aureus ATCC 25923 after 24 hrs by two-fold serial dilution method; assay type: functional; conditions: ATCC 25923, 24 h
[7] = tested on: Aspergillus fumigatus; experiment: Antifungal activity against Aspergillus fumigatus GIMCC 3.19 after 24 hrs by two-fold serial dilution method; assay type: functional; conditions: GIMCC 3.19, 24 h
[8] = tested on: Candida tropicalis; experiment: Inhibition of Candida tropicalis ATCC 750 chitin synthase using UDP-GlcNAc as substrate at 300 ug/ml after 60 mins by microplate reader method
[9] = tested on: Candida albicans; experiment: Antifungal activity against Candida albicans CMCC 76615 after 24 hrs by two-fold serial dilution method; assay type: functional; conditions: CMCC 76615, 24 h
[10] = tested on: Aspergillus flavus; experiment: Antifungal activity against Aspergillus flavus ATCC 16870 after 24 hrs by two-fold serial dilution method; assay type: functional; conditions: ATCC 16870, 24 h
[11] = tested on: Cryptococcus neoformans; experiment: Antifungal activity against Cryptococcus neoformans ATCC 32719 after 24 hrs by two-fold serial dilution method; assay type: functional; conditions: ATCC 32719, 24 h
[12] = Inhibition of Candida tropicalis ATCC 750 chitin synthase using UDP-GlcNAc as substrate after 60 mins by microplate reader method

| Compound | MIC [1] | MIC [2] | MIC [3] | MIC [4] | MIC [5] | MIC [6] | MIC [7] | inhibition [8] | MIC [9] | MIC [10] | MIC [11] | IC50 [12] |
| --- | --- | --- | --- | --- | --- | --- | --- | --- | --- | --- | --- | --- |
| CC1COc2c(N3CCN(C)CC3)c(F)cc3c(=O)c(C(=O)O)cn1c23 (stereo not drawn) [OFLOXACIN] | 0.25 µg/mL (≈ 0.692 µM) | 0.25 µg/mL (≈ 0.692 µM) | 1 µg/mL (≈ 2.77 µM) | 0.25 µg/mL (≈ 0.692 µM) | 0.25 µg/mL (≈ 0.692 µM) | 1 µg/mL (≈ 2.77 µM) |  |  |  |  |  |  |
| COC(=O)C(Cc1ccccc1)NP(=O)(OCCN(C)c1cc(=O)oc2c(C)cccc12)Oc1ccccc1 (stereo not drawn) | 128 µg/mL (≈ 232 µM) | 256 µg/mL (≈ 465 µM) | 1 µg/mL (≈ 1.82 µM) | 256 µg/mL (≈ 465 µM) | 16 µg/mL (≈ 29.1 µM) | 256 µg/mL (≈ 465 µM) | 128 µg/mL (≈ 232 µM) | 48% | 128 µg/mL (≈ 232 µM) | 64 µg/mL (≈ 116 µM) | 64 µg/mL (≈ 116 µM) |  |
| COC(=O)CNP(=O)(OCCN(C)c1cc(=O)oc2ccc(C(C)(C)C)cc12)Oc1ccccc1 (stereo not drawn) | 16 µg/mL (≈ 31.8 µM) | 64 µg/mL (≈ 127 µM) | 8 µg/mL (≈ 15.9 µM) | 64 µg/mL (≈ 127 µM) | 16 µg/mL (≈ 31.8 µM) | 64 µg/mL (≈ 127 µM) | 32 µg/mL (≈ 63.7 µM) | 50% | 64 µg/mL (≈ 127 µM) | 64 µg/mL (≈ 127 µM) | 32 µg/mL (≈ 63.7 µM) | 620 µM |
| COC(=O)C(NP(=O)(OCCN(C)c1cc(=O)oc2ccccc12)Oc1ccccc1)C(C)C (stereo not drawn) | 512 µg/mL (≈ 1050 µM) | 512 µg/mL (≈ 1050 µM) | 256 µg/mL (≈ 524 µM) | 512 µg/mL (≈ 1050 µM) | 128 µg/mL (≈ 262 µM) | 256 µg/mL (≈ 524 µM) | 64 µg/mL (≈ 131 µM) | 54% | 32 µg/mL (≈ 65.5 µM) | 16 µg/mL (≈ 32.8 µM) | 64 µg/mL (≈ 131 µM) | 380 µM |
| COC(=O)C(C)NP(=O)(OCCN(C)c1cc(=O)oc2cc(C)ccc12)Oc1ccccc1 (stereo not drawn) | 256 µg/mL (≈ 540 µM) | 128 µg/mL (≈ 270 µM) | 256 µg/mL (≈ 540 µM) | 256 µg/mL (≈ 540 µM) | 256 µg/mL (≈ 540 µM) | 128 µg/mL (≈ 270 µM) | 128 µg/mL (≈ 270 µM) | 45% | 128 µg/mL (≈ 270 µM) | 64 µg/mL (≈ 135 µM) | 128 µg/mL (≈ 270 µM) |  |
| COC(=O)C(NP(=O)(OCCN(C)c1cc(=O)oc2cc(C)ccc12)Oc1ccccc1)C(C)C (stereo not drawn) | 64 µg/mL (≈ 127 µM) | 256 µg/mL (≈ 509 µM) | 128 µg/mL (≈ 255 µM) | 128 µg/mL (≈ 255 µM) | 32 µg/mL (≈ 63.7 µM) | 64 µg/mL (≈ 127 µM) | 128 µg/mL (≈ 255 µM) | 38% | 128 µg/mL (≈ 255 µM) | 128 µg/mL (≈ 255 µM) | 128 µg/mL (≈ 255 µM) |  |
| COC(=O)C(NP(=O)(OCCN(C)c1cc(=O)oc2ccc(C)cc12)Oc1ccccc1)C(C)C (stereo not drawn) | 16 µg/mL (≈ 31.8 µM) | 16 µg/mL (≈ 31.8 µM) | 32 µg/mL (≈ 63.7 µM) | 32 µg/mL (≈ 63.7 µM) | 16 µg/mL (≈ 31.8 µM) | 16 µg/mL (≈ 31.8 µM) | 128 µg/mL (≈ 255 µM) | 41% | 64 µg/mL (≈ 127 µM) | 128 µg/mL (≈ 255 µM) | 32 µg/mL (≈ 63.7 µM) |  |
| COC(=O)C(NP(=O)(OCCN(C)c1cc(=O)oc2c(C)cccc12)Oc1ccccc1)C(C)C (stereo not drawn) | 256 µg/mL (≈ 509 µM) | 256 µg/mL (≈ 509 µM) | 32 µg/mL (≈ 63.7 µM) | 256 µg/mL (≈ 509 µM) | 32 µg/mL (≈ 63.7 µM) | 128 µg/mL (≈ 255 µM) | 128 µg/mL (≈ 255 µM) | 45% | 128 µg/mL (≈ 255 µM) | 128 µg/mL (≈ 255 µM) | 128 µg/mL (≈ 255 µM) |  |
| NC(=O)OC[C@H](O)[C@@H](O)[C@H](N)C(=O)N[C@H](C(=O)O)[C@H]1O[C@@H](n2cc(CO)c(=O)[nH]c2=O)[C@H](O)[C@@H]1O [POLYOXIN B] |  |  |  |  |  |  | 64 µg/mL (≈ 126 µM) | 82% | 32 µg/mL (≈ 63.1 µM) | 64 µg/mL (≈ 126 µM) | 8 µg/mL (≈ 15.8 µM) | 160 µM |
| CN[C@@H]1[C@H](O[C@H]2[C@H](O[C@H]3[C@H](O)[C@@H](O)[C@H](N=C(N)N)[C@@H](O)[C@@H]3N=C(N)N)O[C@@H](C)[C@]2(O)C=O)O[C@@H](CO)[C@H](O)[C@H]1O [STREPTOMYCIN] | 4 µg/mL (≈ 6.88 µM) | 4 µg/mL (≈ 6.88 µM) | 4 µg/mL (≈ 6.88 µM) | 1 µg/mL (≈ 1.72 µM) | 4 µg/mL (≈ 6.88 µM) | 4 µg/mL (≈ 6.88 µM) |  |  |  |  |  |  |
| COC(=O)C(Cc1ccccc1)NP(=O)(OCCN(C)c1cc(=O)oc2ccc(C)cc12)Oc1ccccc1 (stereo not drawn) | 256 µg/mL (≈ 465 µM) | 64 µg/mL (≈ 116 µM) | 128 µg/mL (≈ 232 µM) | 16 µg/mL (≈ 29.1 µM) | 64 µg/mL (≈ 116 µM) | 64 µg/mL (≈ 116 µM) | 128 µg/mL (≈ 232 µM) | 43% | 64 µg/mL (≈ 116 µM) | 64 µg/mL (≈ 116 µM) | 64 µg/mL (≈ 116 µM) |  |
